Results: ChEMBL document CHEMBL4270557, “Discovery of potent anti-convulsant carbonic anhydrase inhibitors: Design, synthesis, in vitro and in vivo appraisal” (Eur J Med Chem, 2018)

Experiments:
Carbonic anhydrase 2 = Carbonic anhydrase 2 (Homo sapiens, UniProt P00918); assay: Inhibition of human recombinant carbonic anhydrase 2 assessed as CO2 hydration preincubated for 15 mins prior to testing measured for 10 to 100 secs by phenol red dye-based stopped-flow assay
Mus musculus [1] = assay: Anticonvulsant activity in Swiss albino mouse assessed as protection against subcutaneous PTZ-induced seizures at 100 mg/kg, ip administered 0.5 hrs prior to PTZ-induction relative to control; assay type: functional
Mus musculus [2] = assay: Anticonvulsant activity in Swiss albino mouse assessed as protection against subcutaneous PTZ-induced seizures at 100 mg/kg, ip administered 3 hrs prior to PTZ-induction relative to control; assay type: functional
Rattus norvegicus [3] = assay: Anticonvulsant activity in Wistar rat assessed as protection against maximal electroshock-induced seizures at 30 mg/kg, po administered 4 hrs prior to 150 mA current induction relative to control; assay type: functional
Mus musculus [4] = assay: Anticonvulsant activity in Swiss albino mouse assessed as protection against maximal electroshock-induced seizures at 30 mg/kg, ip administered 2 hrs prior to 50 mA current induction relative to control; assay type: functional
Mus musculus [5] = assay: Neurotoxicity in Swiss albino mouse at 30 mg/kg, ip after 30 to 120 mins by rotarod test; assay type: toxicity, organism-based; conditions: in vivo
Rattus norvegicus [6] = assay: Sub-acute toxicity in Wistar rat assessed as RBC level at 100 mg/kg, po administered daily for 14 days (reference value: 7.9 +/- 0.56 million/mm3); assay type: organism-based; conditions: in vivo, 336 h
Rattus norvegicus [7] = assay: Sub-acute toxicity in Wistar rat assessed as SGOT level at 100 mg/kg, po administered daily for 14 days (reference value: 69.9 +/- 7.7 U/L); assay type: organism-based; conditions: in vivo, 336 h
Rattus norvegicus [8] = assay: Sub-acute toxicity in Wistar rat assessed as SGPT level at 100 mg/kg, po administered daily for 14 days (reference value: 58.8 +/- 18.8 U/L); assay type: organism-based; conditions: in vivo, 336 h
Rattus norvegicus [9] = assay: Sub-acute toxicity in Wistar rat assessed as alkaline phosphatase level at 100 mg/kg, po administered daily for 14 days (reference value: 113.2 +/- 15.1 U/L); assay type: organism-based; conditions: in vivo, 336 h
Rattus norvegicus [10] = assay: Sub-acute toxicity in Wistar rat assessed as uric acid level at 100 mg/kg, po administered daily for 14 days (reference value: 3.9 +/- 2.8 mg/dl); assay type: organism-based; conditions: in vivo, 336 h
Rattus norvegicus [11] = assay: Sub-acute toxicity in Wistar rat assessed as Na+ level at 100 mg/kg, po administered daily for 14 days (reference value: 143.8 +/- 2.3 mEq/L); assay type: organism-based; conditions: in vivo, 336 h
Rattus norvegicus [12] = assay: Sub-acute toxicity in Wistar rat assessed as change in behavior at 100 mg/kg, po administered daily for 14 days; assay type: organism-based; conditions: in vivo, 336 h
Rattus norvegicus [13] = assay: Sub-acute toxicity in Wistar rat assessed as mortality at 100 mg/kg, po administered daily for 14 days; assay type: organism-based; conditions: in vivo, 336 h
Rattus norvegicus [14] = assay: Sub-acute toxicity in Wistar rat assessed as hemoglobin level at 100 mg/kg, po administered daily for 14 days (reference value: 13.1 +/- 0.9 g/dl); conditions: in vivo, 336 h
Mus musculus [15] = assay: Anticonvulsant activity in Swiss albino mouse assessed as protection against maximal electroshock-induced seizures at 100 mg/kg, ip administered 3 hrs prior to 50 mA current induction relative to control

For `Cc1ccc(N2CCN(c3ccc(/C=N/NC(=O)c4ccc(S(N)(=O)=O)cc4)cc3)CC2)c(C)c1`, the Ki (Carbonic anhydrase 2) was 9.39 µM, the Activity (Mus musculus [1]) was 50% and the Activity (Mus musculus [2]) was 83%. The Activity (Rattus norvegicus [3]) was 50%, the Activity (Mus musculus [4]) was 60% and the Activity (Mus musculus [5]) was “Non-Toxic”. For the same compound, the Activity (Rattus norvegicus [6]) was 7.2 million/mm3, the Activity (Rattus norvegicus [7]) was 65 U/L and the Activity (Rattus norvegicus [8]) was 60.3 U/L. For the same compound, the Activity (Rattus norvegicus [9]) was 96.5 U/L, the Activity (Rattus norvegicus [10]) was 4.33 mg/dL and the Activity (Rattus norvegicus [11]) was 142.5 mEq/L. For the same compound, the Activity (Rattus norvegicus [12]) was “Non-Toxic”, the Activity (Rattus norvegicus [13]) was “Non-Toxic” and the Activity (Rattus norvegicus [14]) was 12.2 g/dL. It also gave an Activity (Mus musculus [15]) of 50%.
